Measured values taken from ChEMBL document CHEMBL1157539, “Thousands of chemical starting points for antimalarial lead identification” (Nature, 2010).

System: Plasmodium falciparum
Experiment: GSK_TCMDC: Inhibition of Plasmodium falciparum 3D7 in whole erythrocytes, using parasite LDH activity as an index of growth.
Assay type: functional, organism-based
Conditions: Plasmodium falciparum, 3D7

Going from COc1ccc(Nc2nc(N/N=C/c3ccc(O)cc3)nc(Nc3ccc([N+](=O)[O-])cc3)n2)cc1 to O=[N+]([O-])c1ccc(Nc2nc(N/N=C/c3cc(Cl)cc(Cl)c3O)nc(Nc3ccccc3)n2)cc1, the XC50 falls from 1120 nM to 671 nM (1.7-fold).

CCN(CC)CCN(Cc1ccc(-c2ccc(C(F)(F)F)cc2)cc1)C(=O)Cn1c(CCc2ccc(F)c(F)c2F)nc(=O)c2cccnc21 and CC(C)N1CCC(N(Cc2ccc(-c3ccc(Cl)cc3)cc2)C(=O)Cn2c(CCc3cccc(F)c3F)nc(=O)c3ccccc32)CC1 are within 1.5-fold of each other in XC50: 1130 nM for the first, 944 nM for the second.

COc1ccc(Nc2ncc3c(-c4cccc(NC(=O)Cc5ccc(O)cc5)c4)c[nH]c3n2)cc1OC and O=C(Cc1cccc(Cl)c1)Nc1cccc(-c2c[nH]c3nc(Nc4ccccc4)ncc23)c1 are within 1.5-fold of each other in XC50: 570 nM for the first, 678 nM for the second.

COc1ccc(Cl)cc1N1CCN(CCCNC(=O)c2ccc(-c3nc4ccc(C(F)(F)F)cc4[nH]3)c(C)c2)CC1 and O=C(NCCN1CCCC1)c1cccc(-c2ccc(-c3nc4cc(F)ccc4[nH]3)cc2)c1 are within 1.5-fold of each other in XC50: 762 nM for the first, 722 nM for the second.

O=C(Nc1ccccc1)c1ccc(-c2cc3ccncc3cc2OC2CCNCC2)s1 and Cc1cc(N[C@@H](Cc2ccccc2)C(=O)Nc2ccccc2)nc(NCC2CCCCC2)n1 are within 1.5-fold of each other in XC50: 654 nM for the first, 761 nM for the second.

Going from COc1ccc(NC(=O)/C=C/c2ccccc2Cl)cc1OCCN1CCN(c2ccncc2)CC1 to COc1ccccc1-c1ccc(CNC(=O)C(CN2CCN(C)CC2)c2ccccc2)cc1 (stereo not given), the XC50 rises from 728 nM to 1260 nM (1.7-fold).

First: Cc1cc(N)nc2cc(CNCCc3ccccc3Br)ccc12
Second: O=c1cc(NCCCNCc2ccc(C(F)(F)F)c(F)c2)[nH]c2ccccc12
The XC50 of the first is 9.2-fold lower: 129 nM for the first, 1190 nM for the second.

CC1CN(CCCn2c3ccccc3c3ccc(C(=O)CCCN(C)C)cc32)CC(C)N1 (stereo not given) and CC1CN(c2cnn(C/C=C/c3ccc(NC(=O)c4ccc(Cl)cc4)cc3)c(=O)c2Cl)CC(C)N1 (stereo not given) are within 1.5-fold of each other in XC50: 809 nM for the first, 853 nM for the second.

CN(C)CCNCc1nc(-c2ccc3c(Nc4ccc(Cl)cc4F)ccnc3c2)cs1 and Fc1ccc2c(NN=Cc3ccccc3F)ccnc2c1 are within 1.5-fold of each other in XC50: 809 nM for the first, 562 nM for the second.

Going from CC(=O)NC(c1cccs1)c1cc(Cl)c2cccnc2c1O (stereo not given) to CC1CCCN(C(=O)c2cc(-c3ccccn3)nc3c(Cl)cccc23)C1 (stereo not given), the XC50 rises from 317 nM to 1080 nM (3.4-fold).

COc1cccc(NC(=O)NCCNc2ccnc(Nc3ccc(F)cc3)n2)c1 and Fc1ccc(OC2CN(c3nccc(NCc4ccccc4Cl)n3)C2)cc1 are within 1.5-fold of each other in XC50: 917 nM for the first, 898 nM for the second.

Compared with O=C(/C=C/c1cccc2c1OCO2)Nc1ccnc2ccncc12, CC(C)Oc1ccc(C=CC(=O)Nc2noc3ccccc23)cc1 is 3.1-fold lower in XC50: 895 nM for the first, 288 nM for the second.

Compared with Cc1cc(N2CCCC2)nc(Nc2ccc(NC(=O)c3ccccc3C)cc2)n1, Cc1cc(N(C)CCCN2CCCCC2)nc(Nc2ccc(Cl)cc2)n1 is 3.9-fold lower in XC50: 724 nM for the first, 188 nM for the second.

Going from CN1CCCN(Cc2cccc(-c3cccc(NC(=O)c4cccc(C#N)c4)c3)c2)CC1 to O=C(Nc1cccc(-c2cccc(-c3nc4cc(F)ccc4[nH]3)c2)c1)c1ccoc1, the XC50 falls from 818 nM to 333 nM (2.5-fold).

CO/C(=C\C=C\c1cc2cc(Cl)c(Cl)cc2[nH]1)C(=O)NCCCN(C)CCN(C)c1ccccc1 and CO/C(=C\C=C\c1cc2cc(Cl)c(Cl)cc2[nH]1)C(=O)NCCCN1CCN(c2cccc(CCO)c2)CC1 are within 1.5-fold of each other in XC50: 828 nM for the first, 716 nM for the second.

CCOC(=O)c1c(NC(=O)c2ccccc2)sc2c(O)c(CN(CC)CC)ccc12 and Cc1cc(N[C@@H](Cc2ccccc2)C(=O)NCc2cccc(F)c2)nc(NCc2ccccc2C)n1 are within 1.5-fold of each other in XC50: 969 nM for the first, 981 nM for the second.

Compared with O=C(Nc1ccc(Cl)c(Cl)c1)N1CCC(CN2CCC(c3c[nH]c4ccccc34)CC2)CC1, O=C(/C=C/c1ccc(Cl)c(Cl)c1)NCCCCCCN1CCCN(C(=O)Nc2cccc(Cl)c2)CC1 is 2.9-fold higher in XC50: 295 nM for the first, 855 nM for the second.

Oc1ccc(-c2ccccc2)cc1CN1CCCCC1 and O=S(=O)(NCCN1CCCC1)c1cccc(-c2ccc(CNCc3ccsc3)cc2)c1 are within 1.5-fold of each other in XC50: 903 nM for the first, 804 nM for the second.

Compared with CN1CCC(N2CCN(Cc3ccc(-c4ccc(-c5nc6ccccc6[nH]5)s4)cc3)CC2)CC1, CC(O)C1CCCCN1C(=O)c1ccc(-c2ccc(-c3nc4ccccc4[nH]3)s2)cc1 (stereo not given) is 6.9-fold higher in XC50: 140 nM for the first, 966 nM for the second.

O=C1C(c2ccccc2)=C(Nc2ccc([N+](=O)[O-])cc2)c2ccccc21 and COc1ccccc1NC(=O)Nc1ccc(-c2cccc(-c3nc4ccccc4[nH]3)c2)cc1 are within 1.5-fold of each other in XC50: 871 nM for the first, 641 nM for the second.

Cc1onc(-c2ccc(Cl)cc2)c1-c1ccnn1S(=O)(=O)c1ccc(Cl)cc1 and Cc1ccc(S(=O)(=O)Nc2ccc(Nc3nccc(Nc4cccc5[nH]ncc45)n3)cc2)cc1 are within 1.5-fold of each other in XC50: 711 nM for the first, 958 nM for the second.

COc1ccc2nccc([C@@H](O)CN3CCC(NCc4cc5cccnc5[nH]4)CC3)c2n1 and NCc1ccc(-c2ccccc2CNC2CCN(Cc3ccccc3)CC2)cc1 are within 1.5-fold of each other in XC50: 956 nM for the first, 765 nM for the second.

COc1ccc(CC2(c3ccc(F)cc3)N=C(N)N(CCCc3cccnc3)C2=O)cc1 (stereo not given) and O=C(Nc1cccc(-c2ccc(-c3nc4cc(F)ccc4[nH]3)cc2)c1)c1ccoc1 are within 1.5-fold of each other in XC50: 668 nM for the first, 962 nM for the second.

Compared with CCOc1ccc(-c2noc(-c3c[nH]c4ccccc4c3=O)n2)cc1, c1ccc(Oc2ccc(Nc3nc(NCCc4c[nH]cn4)nc(NC4CCCC4)n3)cc2)cc1 is 5-fold higher in XC50: 205 nM for the first, 1030 nM for the second.

Cc1cccc2nc(-c3ccc(-c4cccc(NC(=O)c5cnn6cccnc56)c4)cc3)[nH]c12 and O=C(Nc1cccc(-c2cccc(-c3nc4cc(F)ccc4[nH]3)c2)c1)c1csnn1 are within 1.5-fold of each other in XC50: 872 nM for the first, 788 nM for the second.

O=C(Nc1cc(Cl)cc(Cl)c1)c1cc(Cl)c(=O)n(Cc2ccc(Cl)cc2)c1 and CC1CCN(CC[C@H]2CCCN2S(=O)(=O)c2cccc(NC(=O)c3ccc(-c4ccc(Cl)cc4)o3)c2)CC1 are within 1.5-fold of each other in XC50: 863 nM for the first, 693 nM for the second.

O=C(NC1CC1)c1ccc(N2CCC(c3ccccc3)CC2)nc1 and Cc1ccccc1C1CCN(C2CCC(NC(=O)/C=C/c3ccc(F)c(F)c3)CC2)CC1 (stereo not given) are within 1.5-fold of each other in XC50: 1110 nM for the first, 945 nM for the second.

c1ccc(CNCc2cccc(-c3ccc(-c4nc5ccccc5[nH]4)cc3)c2)cc1 and OC1CCCN(Cc2cccc(-c3ccc(-c4nc5cc(F)ccc5[nH]4)cc3)c2)C1 (stereo not given) are within 1.5-fold of each other in XC50: 822 nM for the first, 780 nM for the second.

Cc1sc(C)c(C(F)(F)F)c1CNCCCNc1cc(=O)c2ccccc2[nH]1 and N#Cc1cccc(Nc2cc(C(F)(F)F)nc(Nc3ccccc3)n2)c1 are within 1.5-fold of each other in XC50: 1100 nM for the first, 1440 nM for the second.

First: CCCCCCCCOc1ccc(N2C(N)=NC(N)=NC2(C)C)cc1
Second: CCCNCc1ccc(-c2ccc(CN(Cc3cnc(C)cn3)C(=O)CC#N)cc2)nc1
The XC50 of the first is 2.4-fold lower: 502 nM for the first, 1220 nM for the second.

First: NS(=O)(=O)c1cccc(Nc2nc(N[C@@H]3CCNC3)nc3cc[nH]c(=O)c23)c1
Second: N#Cc1ccc2c(c1)CCN(CCC1CCC(NC(=O)/C=C/c3ccc(Cl)c(Cl)c3)CC1)CC2 (stereo not given)
The XC50 of the first is 2.2-fold higher: 940 nM for the first, 422 nM for the second.

First: OC(c1ccc2ccccc2c1)C1CN(CCc2ccccc2)CCC1(O)c1ccccc1 (stereo not given)
Second: CN1CCN(Cc2ccc(-c3cc4nccc(Nc5ccc(Oc6ccccc6)cc5)c4cc3Cl)o2)CC1
The XC50 of the first is 1.8-fold lower: 554 nM for the first, 979 nM for the second.

First: CCCCN(Cc1cnccc1-c1ccc(Br)cc1)c1ccc(C(O)(C(F)(F)F)C(F)(F)F)cc1
Second: O=C(Nc1cccc(-c2nn3ccccc3c2-c2ccnc(Nc3cccc(C(F)(F)F)c3)n2)c1)c1c(F)cccc1F
The XC50 of the first is 1.7-fold higher: 1060 nM for the first, 627 nM for the second.

Compared with N[C@@H](CCN1CCC(c2cccc(O)c2)CC1)Cc1ccc(F)c(F)c1, Cc1ccc2c(c1)NCC21CCN(C[C@@H](O)C2CCN(c3cc(C#N)ccn3)CC2)CC1C (stereo not given in full) is 1.8-fold lower in XC50: 1110 nM for the first, 606 nM for the second.

Compared with c1cc2[nH]c(CCCc3nc4cc(C5=N[C@H]6CCCC[C@H]6N5)ccc4[nH]3)nc2cc1C1=N[C@@H]2CCCC[C@@H]2N1, Fc1ccc2c(NN=CC=Cc3ccccc3)ccnc2c1 is 1.6-fold lower in XC50: 1240 nM for the first, 779 nM for the second.
